Like-named read-outs stand apart in the source and are kept apart here.
Experiments:
134 cancer cell lines = test: Cell viability assay (ATPlite, 72 hours), IC50 on cancer cell line panel
AP-1060 (ETV6-NTRK3) = test: Cell viability assay; settings: read-out: IC50 in cell proliferation assay

With `O=C(c1ccc(F)c(F)c1Nc1ccc(I)cc1F)N1CC(O)([C@@H]2CCCCN2)C1` [cobimetinib] the IC50 (134 cancer cell lines; Homo sapiens, MV4-11, read-out: IC50 in cell proliferation assay, MV4-11 cell line (FLT3 ITD)) was 0.111 µM, the IC50 (134 cancer cell lines; Homo sapiens, MeWo, read-out: IC50 in cell proliferation assay, MeWo cell line) was 0.33 µM and the IC50 (134 cancer cell lines; Homo sapiens, NCCIT, read-out: IC50 in cell proliferation assay, NCC-IT cell line) was 1.29 µM. It also gave an IC50 (134 cancer cell lines; Homo sapiens, NCI-H82, read-out: IC50 in cell proliferation assay, cell line NCI-H82) of 8.22 µM, an IC50 (134 cancer cell lines; Homo sapiens, NCI-H460, read-out: IC50 in cell proliferation assay, NCI-H460 cell line) of 0.077 µM and an IC50 (134 cancer cell lines; Homo sapiens, NCI-H661, read-out: IC50 in cell proliferation assay, NCI-H661 cell line) of over 10 µM. The IC50 (134 cancer cell lines; Homo sapiens, NCI-H716, read-out: IC50 in cell proliferation assay, cell line NCI-H716 (FGFR2-COL14A1)) was 0.921 µM, the IC50 (134 cancer cell lines; Homo sapiens, NCI-H1650, read-out: IC50 in cell proliferation assay, NCI-H1650 cell line (EGFR exon19del)) was 0.527 µM and the IC50 (134 cancer cell lines; Homo sapiens, NCI-H1975, read-out: IC50 in cell proliferation assay, NCI-H1975 cell line (EGFR p.L858R + p.T790M)) was 0.098 µM. It also gave an IC50 (134 cancer cell lines; Homo sapiens, NCI-H2228, read-out: IC50 in cell proliferation assay, NCI-H2228 cell line (EML4-ALK)) of 0.721 µM, an IC50 (134 cancer cell lines; Homo sapiens, OVCAR-3, read-out: IC50 in cell proliferation assay, cell line OVCAR-3) of over 10 µM and an IC50 (134 cancer cell lines; Homo sapiens, PFSK-1, read-out: IC50 in cell proliferation assay, cell line PFSK-1) of over 10 µM. The IC50 (134 cancer cell lines; Homo sapiens, RL95-2, read-out: IC50 in cell proliferation assay, cell line RL95-2 (EGFR p.A289V)) was 0.034 µM, the IC50 (134 cancer cell lines; Homo sapiens, RPMI-7951, read-out: IC50 in cell proliferation assay, cell line RPMI-7951 (BRAF p.V600E)) was 0.02 µM and the IC50 (134 cancer cell lines; Homo sapiens, RS4-11, read-out: IC50 in cell proliferation assay, cell line RS4;11) was over 10 µM. For the same compound, the IC50 (134 cancer cell lines; Homo sapiens, Rec1, read-out: IC50 in cell proliferation assay, cell line REC-1) was 6.39 µM, the IC50 (134 cancer cell lines; Homo sapiens, SHP77, read-out: IC50 in cell proliferation assay, cell line SHP-77) was over 10 µM and the IC50 (134 cancer cell lines; Homo sapiens, SK-BR-3, read-out: IC50 in cell proliferation assay, cell line SK-BR-3 (ERBB2 amplification)) was over 10 µM. It also gave an IC50 (134 cancer cell lines; Homo sapiens, SK-N-AS, read-out: IC50 in cell proliferation assay, cell line SK-N-AS) of 0.012 µM, an IC50 (134 cancer cell lines; Homo sapiens, SK-N-FI, read-out: IC50 in cell proliferation assay, cell line SK-N-FI) of 0.082 µM and an IC50 (134 cancer cell lines; Homo sapiens, SK-N-MC, read-out: IC50 in cell proliferation assay, cell line SK-N-MC) of 7.63 µM. The IC50 (134 cancer cell lines; Homo sapiens, SK-N-SH, read-out: IC50 in cell proliferation assay, cell line SK-N-SH (ALK p.F1174L)) was 0.037 µM, the IC50 (134 cancer cell lines; Homo sapiens, SNU-5, read-out: IC50 in cell proliferation assay, cell line SNU-5 (MET amplification)) was 0.047 µM and the IC50 (134 cancer cell lines; Homo sapiens, SNU-16, read-out: IC50 in cell proliferation assay, cell line SNU-16 (FGFR2 amplification)) was 2.49 µM. For the same compound, the IC50 (134 cancer cell lines; Homo sapiens, SNU-C2B, read-out: IC50 in cell proliferation assay, cell line SNU-C2B (EGFR p.R165Q)) was 0.324 µM, the IC50 (134 cancer cell lines; Homo sapiens, SU-DHL-1, read-out: IC50 in cell proliferation assay, cell line SU-DHL-1 (NPM1-ALK)) was 0.478 µM and the IC50 (134 cancer cell lines; Homo sapiens, SU-DHL-6, read-out: IC50 in cell proliferation assay, cell line SU-DHL-6) was 2.02 µM. The IC50 (134 cancer cell lines; Homo sapiens, SUP-T1, read-out: IC50 in cell proliferation assay, cell line SUP-T1) was over 10 µM, the IC50 (134 cancer cell lines; Homo sapiens, SW48, read-out: IC50 in cell proliferation assay, cell line SW48 (EGFR p.G719S)) was 0.059 µM and the IC50 (134 cancer cell lines; Homo sapiens, SW480, read-out: IC50 in cell proliferation assay, cell line SW480) was 0.342 µM. It also gave an IC50 (134 cancer cell lines; Homo sapiens, SW626, read-out: IC50 in cell proliferation assay, cell line SW626) of 0.146 µM, an IC50 (134 cancer cell lines; Homo sapiens, SW780, read-out: IC50 in cell proliferation assay, cell line SW780 (FGFR3-BAIAP2L1)) of 0.127 µM and an IC50 (134 cancer cell lines; Homo sapiens, SW837, read-out: IC50 in cell proliferation assay, cell line SW837) of 0.137 µM. For the same compound, the IC50 (134 cancer cell lines; Homo sapiens, SW872, read-out: IC50 in cell proliferation assay, cell line SW872 (BRAF p.V600E)) was 0.046 µM, the IC50 (134 cancer cell lines; Homo sapiens, SW900, read-out: IC50 in cell proliferation assay, cell line SW900) was 0.295 µM and the IC50 (134 cancer cell lines; Homo sapiens, SW948, read-out: IC50 in cell proliferation assay, cell line SW948) was 0.087 µM. For the same compound, the IC50 (134 cancer cell lines; Homo sapiens, SW982, read-out: IC50 in cell proliferation assay, cell line SW982 (BRAF p.V600E)) was 1.7 µM, the IC50 (134 cancer cell lines; Homo sapiens, SW-620, read-out: IC50 in cell proliferation assay, cell line SW620) was 0.093 µM and the IC50 (134 cancer cell lines; Homo sapiens, T98G, read-out: IC50 in cell proliferation assay, cell line T98G) was 3.34 µM. The IC50 (134 cancer cell lines; Homo sapiens, TCC-SUP, read-out: IC50 in cell proliferation assay, cell line TCCSUP) was 0.483 µM, the IC50 (134 cancer cell lines; Homo sapiens, THP-1, read-out: IC50 in cell proliferation assay, cell line THP-1) was 0.02 µM and the IC50 (134 cancer cell lines; Homo sapiens, U2OS, read-out: IC50 in cell proliferation assay, cell line U2OS) was 0.279 µM. For the same compound, the IC50 (134 cancer cell lines; Homo sapiens, U-87 MG, read-out: IC50 in cell proliferation assay, cell line U-87MG ATCC) was 0.925 µM, the IC50 (134 cancer cell lines; Homo sapiens, U-118-MG, read-out: IC50 in cell proliferation assay, cell line U-118MG) was 0.147 µM and the IC50 (134 cancer cell lines; Homo sapiens, UMUC3, read-out: IC50 in cell proliferation assay, cell line UM-UC-3) was 0.043 µM. For the same compound, the IC50 (134 cancer cell lines; Hs766T, read-out: IC50 in cell proliferation assay, Hs 766T cell line) was 0.006 µM, the IC50 (134 cancer cell lines; L-82, read-out: IC50 in cell proliferation assay, L-82 cell line (NPM1-ALK)) was 0.25 µM and the IC50 (134 cancer cell lines; Rh30, read-out: IC50 in cell proliferation assay, cell line Rh30) was 3.41 µM. For the same compound, the IC50 (134 cancer cell lines; read-out: IC50 in cell proliferation assay, 11-18 cell line (EGFR p.L858R)) was over 10 µM, the IC50 (134 cancer cell lines; read-out: IC50 in cell proliferation assay, Hs 852.T cell line) was 0.592 µM and the IC50 (134 cancer cell lines; read-out: IC50 in cell proliferation assay, JAR cell line) was 6.29 µM. The IC50 (134 cancer cell lines; read-out: IC50 in cell proliferation assay, cell line 5637) was 0.452 µM, the IC50 (134 cancer cell lines; read-out: IC50 in cell proliferation assay, cell line A-388) was 0.171 µM and the IC50 (134 cancer cell lines; read-out: IC50 in cell proliferation assay, cell line DB) was 8.69 µM. The IC50 (134 cancer cell lines; read-out: IC50 in cell proliferation assay, cell line DEL (NPM1-ALK)) was 4.2 µM, the IC50 (134 cancer cell lines; read-out: IC50 in cell proliferation assay, cell line ES-2 (BRAF p.V600E)) was 0.032 µM and the IC50 (134 cancer cell lines; read-out: IC50 in cell proliferation assay, cell line PA-1) was 0.496 µM. It also gave an IC50 (134 cancer cell lines; read-out: IC50 in cell proliferation assay, cell line PC-3) of over 10 µM, an IC50 (134 cancer cell lines; read-out: IC50 in cell proliferation assay, cell line RD) of 0.092 µM and an IC50 (134 cancer cell lines; read-out: IC50 in cell proliferation assay, cell line RKO (BRAF p.V600E)) of 0.038 µM. For the same compound, the IC50 (134 cancer cell lines; read-out: IC50 in cell proliferation assay, cell line RL) was over 10 µM, the IC50 (134 cancer cell lines; read-out: IC50 in cell proliferation assay, cell line RT-4 (FGFR3-TACC3)) was 0.299 µM and the IC50 (134 cancer cell lines; read-out: IC50 in cell proliferation assay, cell line SR (NPM1-ALK)) was 0.509 µM. For the same compound, the IC50 (134 cancer cell lines; read-out: IC50 in cell proliferation assay, cell line T24) was 0.043 µM, the IC50 (134 cancer cell lines; read-out: IC50 in cell proliferation assay, cell line TT (RET p.C634W)) was 0.225 µM and the IC50 (134 cancer cell lines; read-out: IC50 in cell proliferation assay, cell line VA-ES-BJ) was 4.58 µM. For the same compound, the IC50 (AP-1060 (ETV6-NTRK3)) was 7.33 µM.
